Common to all, as to type: biochemical
One test concerns the target PI3K-delta (Homo sapiens, UniProt O00329). As to the kind of experiment: PI3K-delta fluorescence polarization assay. The conditions noted are these: read-out: PI3Kδ Avg. IC50.
In a further test the target is T1, human TOR (Homo sapiens, UniProt P42345).
T1 construct: FLAG
As to the kind of experiment: mTOR enzyme assay (DELFIA, His6-S6K substrate). The conditions noted are these: read-out: mTOR Kinase Avg. IC50.

The next test deals with PI3K-alpha (Homo sapiens, UniProt P42336). As to the kind of experiment: PI3K-alpha fluorescence polarization assay. (Polarisation of emitted light reports the rotation of a fluorescent probe.)
Chain of PI3K-alpha (P42336 whole entry, species assumed, the tested form may be a part): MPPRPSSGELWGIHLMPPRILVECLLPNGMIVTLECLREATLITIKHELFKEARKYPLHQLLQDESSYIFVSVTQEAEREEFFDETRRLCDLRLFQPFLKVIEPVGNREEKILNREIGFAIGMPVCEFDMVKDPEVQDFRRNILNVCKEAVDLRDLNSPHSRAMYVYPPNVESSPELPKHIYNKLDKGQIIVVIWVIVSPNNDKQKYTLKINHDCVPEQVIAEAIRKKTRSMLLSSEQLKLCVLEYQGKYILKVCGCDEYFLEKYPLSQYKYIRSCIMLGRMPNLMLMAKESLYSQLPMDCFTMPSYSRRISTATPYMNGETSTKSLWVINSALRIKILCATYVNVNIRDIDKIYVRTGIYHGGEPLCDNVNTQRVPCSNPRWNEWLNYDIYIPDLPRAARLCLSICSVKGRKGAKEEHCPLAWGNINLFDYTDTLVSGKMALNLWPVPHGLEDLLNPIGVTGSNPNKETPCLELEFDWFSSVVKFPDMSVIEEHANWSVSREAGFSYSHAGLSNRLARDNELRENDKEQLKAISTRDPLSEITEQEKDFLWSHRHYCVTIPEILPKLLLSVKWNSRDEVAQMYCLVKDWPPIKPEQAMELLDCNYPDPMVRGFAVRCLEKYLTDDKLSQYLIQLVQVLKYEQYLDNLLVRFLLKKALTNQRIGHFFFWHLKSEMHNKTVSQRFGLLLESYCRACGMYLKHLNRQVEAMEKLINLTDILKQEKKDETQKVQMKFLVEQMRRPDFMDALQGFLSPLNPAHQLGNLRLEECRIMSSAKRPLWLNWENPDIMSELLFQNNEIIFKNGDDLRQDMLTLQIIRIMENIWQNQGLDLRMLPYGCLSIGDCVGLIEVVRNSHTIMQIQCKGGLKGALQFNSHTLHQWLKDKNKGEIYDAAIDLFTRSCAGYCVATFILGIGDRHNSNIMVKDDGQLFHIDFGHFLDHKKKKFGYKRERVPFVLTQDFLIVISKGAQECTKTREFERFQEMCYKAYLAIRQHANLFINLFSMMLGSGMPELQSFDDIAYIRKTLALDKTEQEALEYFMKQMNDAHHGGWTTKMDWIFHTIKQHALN
Chain of PI3K-alpha (P27986 whole entry partner, species assumed, the tested form may be a part): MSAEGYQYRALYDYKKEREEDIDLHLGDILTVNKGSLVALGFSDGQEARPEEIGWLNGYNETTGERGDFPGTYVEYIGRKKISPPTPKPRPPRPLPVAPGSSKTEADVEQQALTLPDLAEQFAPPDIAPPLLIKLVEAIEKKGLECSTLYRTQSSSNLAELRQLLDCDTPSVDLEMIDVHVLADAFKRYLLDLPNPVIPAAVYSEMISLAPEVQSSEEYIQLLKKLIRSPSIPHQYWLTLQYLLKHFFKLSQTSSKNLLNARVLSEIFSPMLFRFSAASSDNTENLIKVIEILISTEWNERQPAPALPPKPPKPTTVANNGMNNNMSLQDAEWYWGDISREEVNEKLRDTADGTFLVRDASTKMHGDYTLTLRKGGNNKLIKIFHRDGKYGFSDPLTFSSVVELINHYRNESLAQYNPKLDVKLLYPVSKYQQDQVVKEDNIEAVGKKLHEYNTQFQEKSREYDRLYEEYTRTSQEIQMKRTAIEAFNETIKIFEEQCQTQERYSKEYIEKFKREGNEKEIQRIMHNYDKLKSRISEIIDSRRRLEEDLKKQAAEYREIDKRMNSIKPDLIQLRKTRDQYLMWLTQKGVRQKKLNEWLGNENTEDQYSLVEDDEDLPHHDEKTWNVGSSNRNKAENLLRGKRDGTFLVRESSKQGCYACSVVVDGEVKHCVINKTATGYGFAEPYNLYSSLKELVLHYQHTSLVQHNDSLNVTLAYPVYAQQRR
The next test deals with PI3K-gamma (Homo sapiens, UniProt P48736). As to the kind of experiment: PI3K-gamma fluorescence polarization assay. The note with it: PI3Kγ Avg. IC50. Summed up: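 Inhibition is derived from a polarization signal: after a 1 h, 25° C kinase step (25 μM ATP, 2.5 μM diC8-PIP2, pH 7), EDTA stops the reaction and the GRP1 PH domain/TMR-IP4 pair reports lipid product.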
Chain of PI3K-gamma (P48736 whole entry, species assumed, the tested form may be a part): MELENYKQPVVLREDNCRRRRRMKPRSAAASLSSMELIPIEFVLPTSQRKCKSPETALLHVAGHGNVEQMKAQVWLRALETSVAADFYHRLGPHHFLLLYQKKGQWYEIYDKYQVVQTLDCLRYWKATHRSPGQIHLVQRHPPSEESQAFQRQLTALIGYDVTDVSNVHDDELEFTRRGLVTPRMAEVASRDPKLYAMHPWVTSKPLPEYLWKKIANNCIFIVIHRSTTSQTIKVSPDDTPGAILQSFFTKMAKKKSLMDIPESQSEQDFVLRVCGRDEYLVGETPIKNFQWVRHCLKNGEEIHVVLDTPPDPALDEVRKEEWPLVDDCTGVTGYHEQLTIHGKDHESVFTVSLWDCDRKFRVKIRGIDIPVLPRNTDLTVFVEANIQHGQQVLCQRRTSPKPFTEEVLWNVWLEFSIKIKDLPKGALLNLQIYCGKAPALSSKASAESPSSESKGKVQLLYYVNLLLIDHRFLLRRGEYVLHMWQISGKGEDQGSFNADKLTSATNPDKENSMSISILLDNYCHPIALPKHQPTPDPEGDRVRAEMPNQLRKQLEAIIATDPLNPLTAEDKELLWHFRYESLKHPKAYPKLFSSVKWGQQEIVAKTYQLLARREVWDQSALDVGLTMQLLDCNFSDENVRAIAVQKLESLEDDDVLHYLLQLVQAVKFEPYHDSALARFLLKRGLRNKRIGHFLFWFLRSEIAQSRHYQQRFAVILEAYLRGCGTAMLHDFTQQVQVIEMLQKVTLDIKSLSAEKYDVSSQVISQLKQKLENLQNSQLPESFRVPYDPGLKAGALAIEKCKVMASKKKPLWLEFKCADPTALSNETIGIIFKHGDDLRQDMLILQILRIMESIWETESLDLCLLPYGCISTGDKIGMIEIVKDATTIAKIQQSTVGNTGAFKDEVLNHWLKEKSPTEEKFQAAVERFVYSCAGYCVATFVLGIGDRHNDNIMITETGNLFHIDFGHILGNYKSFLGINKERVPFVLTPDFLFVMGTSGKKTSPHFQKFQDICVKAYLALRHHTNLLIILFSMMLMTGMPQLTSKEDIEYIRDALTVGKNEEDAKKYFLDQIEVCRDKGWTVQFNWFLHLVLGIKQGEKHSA
For the next test, the target named is PI3K-beta (Homo sapiens, UniProt P42338). The experiment in a line: PI3K-beta fluorescence polarization assay. The conditions noted are these: read-out: PI3Kβ Avg. IC50. The method, then: PI3K-Alpha, PI3K-Beta, PI3K-Gamma, and PI3K-delta Fluorescence Polarization Assay Protocols
Chain of PI3K-beta (P42338 whole entry, species assumed): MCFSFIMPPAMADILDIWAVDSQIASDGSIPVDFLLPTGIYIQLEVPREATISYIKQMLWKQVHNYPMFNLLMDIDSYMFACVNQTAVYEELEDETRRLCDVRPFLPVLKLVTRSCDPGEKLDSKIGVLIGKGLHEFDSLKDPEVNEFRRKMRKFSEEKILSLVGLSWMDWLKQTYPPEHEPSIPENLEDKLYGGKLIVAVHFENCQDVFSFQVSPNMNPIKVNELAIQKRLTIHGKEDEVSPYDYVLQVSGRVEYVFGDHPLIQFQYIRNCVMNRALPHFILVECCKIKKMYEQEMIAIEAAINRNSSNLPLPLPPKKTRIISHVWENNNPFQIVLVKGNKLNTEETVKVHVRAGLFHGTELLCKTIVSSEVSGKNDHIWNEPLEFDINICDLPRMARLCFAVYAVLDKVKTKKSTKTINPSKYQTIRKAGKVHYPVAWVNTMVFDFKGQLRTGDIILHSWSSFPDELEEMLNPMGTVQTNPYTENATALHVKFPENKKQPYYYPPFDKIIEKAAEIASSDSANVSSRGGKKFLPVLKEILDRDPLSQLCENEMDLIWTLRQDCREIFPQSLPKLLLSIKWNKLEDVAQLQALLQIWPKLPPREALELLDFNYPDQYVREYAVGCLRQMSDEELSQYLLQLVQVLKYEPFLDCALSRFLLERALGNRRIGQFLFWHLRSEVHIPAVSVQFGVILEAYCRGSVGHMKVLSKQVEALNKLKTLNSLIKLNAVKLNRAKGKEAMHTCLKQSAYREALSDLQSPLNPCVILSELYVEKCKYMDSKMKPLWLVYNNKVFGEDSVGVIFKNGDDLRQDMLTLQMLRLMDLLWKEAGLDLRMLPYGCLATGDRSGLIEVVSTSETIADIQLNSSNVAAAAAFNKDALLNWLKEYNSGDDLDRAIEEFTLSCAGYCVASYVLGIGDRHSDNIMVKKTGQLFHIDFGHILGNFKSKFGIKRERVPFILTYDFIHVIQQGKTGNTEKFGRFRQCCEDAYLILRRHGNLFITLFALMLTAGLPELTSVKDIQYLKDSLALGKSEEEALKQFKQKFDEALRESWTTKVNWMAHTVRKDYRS
Chain of PI3K-beta (P27986 whole entry partner, species assumed): as the sequence (P27986 whole entry partner, species assumed, the tested form may be a part) above
PI3-Kinase reactions were performed in 5 mM HEPES, pH 7, 2.5 mM MgCl2, and 25 μM ATP, with diC8-PI(4,5)P2 (Echelon, Salt Lake City Utah) as substrate. Nunc 384-well black polypropylene fluorescent plates were used for PI3K assays. Reactions were quenched by the addition of EDTA to a final concentration of 10 mM. Final reaction volumes were 10 μl. For evaluation of PI3K inhibitors, 5 ng of enzyme (PI3K-alpha, beta, gamma, or delta) and 2.5 μM of substrate was used per […] reaction volume, and inhibitor concentrations ranged from 100 μM to 20 μM; the final level of DMSO in reactions never exceeded 2%. Reactions were allowed to proceed for one hour at 25° C. After 1 hour, GST-tagged GRP1 (general receptor for phosphoinositides) PH domain fusion protein was added to a final concentration of 100 nM, and BODIPY-TMRI(1,3,4,5)P4 (Echelon) was also added to a final concentration of 5 nM. Final sample volumes were 25 μl with a final DMSO concentration of 0.8%. Assay Plates were read on Perkin-Elmer Envision plate readers with appropriate filters for Tamra [BODIPY-TMRI(1,3,4,5)P4]. Data obtained were used to calculate enzymatic activity and enzyme inhibition by inhibitor compounds.

Each structure is given as a SMILES string. Read-outs that look alike come from different tables or passages of the source.

Chain of PI3K-delta (O00329 whole entry, species assumed): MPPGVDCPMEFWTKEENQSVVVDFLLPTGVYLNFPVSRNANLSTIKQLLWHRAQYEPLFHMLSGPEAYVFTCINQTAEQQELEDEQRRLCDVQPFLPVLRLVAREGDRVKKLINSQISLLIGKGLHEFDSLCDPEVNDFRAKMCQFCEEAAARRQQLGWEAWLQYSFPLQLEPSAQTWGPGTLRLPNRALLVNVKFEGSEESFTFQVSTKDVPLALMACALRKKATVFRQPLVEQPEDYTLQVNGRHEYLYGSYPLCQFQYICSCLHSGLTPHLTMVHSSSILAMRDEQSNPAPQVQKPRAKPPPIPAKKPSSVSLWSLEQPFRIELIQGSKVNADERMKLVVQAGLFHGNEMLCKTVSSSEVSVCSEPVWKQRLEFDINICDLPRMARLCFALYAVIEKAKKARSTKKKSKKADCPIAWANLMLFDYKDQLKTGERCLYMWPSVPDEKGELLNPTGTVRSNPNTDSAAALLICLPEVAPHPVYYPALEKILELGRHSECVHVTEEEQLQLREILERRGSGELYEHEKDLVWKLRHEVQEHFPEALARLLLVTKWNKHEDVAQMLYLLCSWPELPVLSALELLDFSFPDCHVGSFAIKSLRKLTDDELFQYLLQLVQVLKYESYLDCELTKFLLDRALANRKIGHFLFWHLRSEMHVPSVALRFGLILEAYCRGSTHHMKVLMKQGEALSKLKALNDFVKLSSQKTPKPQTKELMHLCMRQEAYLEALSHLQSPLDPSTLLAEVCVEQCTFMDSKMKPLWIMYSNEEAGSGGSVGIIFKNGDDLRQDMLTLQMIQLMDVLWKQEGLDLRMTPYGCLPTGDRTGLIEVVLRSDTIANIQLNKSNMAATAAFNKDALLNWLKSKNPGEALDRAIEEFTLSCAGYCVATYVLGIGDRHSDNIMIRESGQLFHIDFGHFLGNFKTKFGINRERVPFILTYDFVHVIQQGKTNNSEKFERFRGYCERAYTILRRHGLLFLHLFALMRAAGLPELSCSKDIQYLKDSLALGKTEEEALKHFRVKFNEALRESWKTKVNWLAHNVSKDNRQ
Chain of PI3K-delta (P27986 whole entry partner, species assumed): as the sequence (P27986 whole entry partner, species assumed, the tested form may be a part) above

The IC50 is the point on the concentration scale where inhibition reaches its midpoint. `COc1ccc2c(c1)c(C=C1Oc3cc(O)cc(O)c3C1=O)c(C)n2CCCCN1CCOCC1` [Example 97, 4,6-dihydroxy-2-{[5-methoxy-2-methyl-1-(4-morpholin-4-ylbutyl)-1H-indol-3-yl]methylene}-1-benzofuran-3(2H)-one]: the IC50 was 0.9 nM at PI3K-delta; below 47 nM on human TOR; 8.7 nM at PI3K-alpha (read-out: PI3Kα Avg. IC50); 138 nM against PI3K-gamma; 9 nM on PI3K-beta.

Regarding `COc1ccc2[nH]c(C(=O)N3CCN(C)CC3)c(/C=C3\Oc4cc(O)cc(O)c4C3=O)c2c1` [Example 331, (2Z)-4,6-Dihydroxy-2-({5-methoxy-2-[(4-methylpiperazin-1-yl)carbonyl]-1H-indol-3-yl}methylene)-1-benzofuran-3(2H)-one], the IC50 at PI3K-delta was 6.5 nM; at human TOR, 49.5 nM; on PI3K-alpha (read-out: PI3Kα Avg. IC50), 4 nM; at PI3K-gamma it was 39.5 nM; at PI3K-beta, 5.5 nM.

For the molecule `COc1ccc2c(c1)c(/C=C1\Oc3cc(O)cc(O)c3C1=O)c(C1CC1)n2CCn1ccnc1` [Example 334, (2Z)-2-({2-Cyclopropyl-1-[2-(1H-imidazol-1-yl)ethyl]-5-methoxy-1H-indol-3-yl}methylene)-4,6-dihydroxy-1-benzofuran-3(2H)-one], the IC50 at PI3K-delta is 1.5 nM; on human TOR, below 17 nM; on PI3K-alpha (read-out: PI3Kα Avg. IC50) it was 1.3 nM; on PI3K-gamma it was 2.2 nM; at PI3K-beta it was 1.2 nM.

As to `CCn1c(C)c(/C=C2\Oc3ccc(NC(=O)Nc4ccc(C(=O)N(C)CCN(C)C)cc4)cc3C2=O)c2cc(OC)ccc21` [Compound 639, N-[2-(dimethylamino)ethyl]-4-[({(2Z)-2-[(1-ethyl-5-methoxy-2-methyl-1H-indol-3-yl)methylene]-3-oxo-2,3-dihydro-1-benzofuran-5-yl}carbamoyl)amino]-N-methylbenzamide], the IC50 on PI3K-delta came out at 1.45 nM; at human TOR it was 12 nM; on PI3K-alpha (read-out: PI3Kα Avg. IC50), 0.33 nM; against PI3K-gamma, 3.42 nM; on PI3K-beta it was 5 nM.

On to `COc1cc(F)c2[nH]c(-c3c(C)nn(C)c3C)c(/C=C3\Oc4ccc(NC(=O)Nc5ccc(C(=O)N(C)CCN(C)C)cc5)cc4C3=O)c2c1` [Compound 710, N-[2-(dimethylamino)ethyl]-4-({[(2Z)-2-{[7-fluoro-5-methoxy-2-(1,3,5-trimethyl-1H-pyrazol-4-yl)-1H-indol-3-yl]methylidene}-3-oxo-2,3-dihydro-1-benzofuran-5-yl]carbamoyl}amino)-N-methylbenzamide], for which the IC50 at PI3K-delta was 0.6 nM; on human TOR, below 1 nM; on PI3K-alpha (read-out: PI3Kα Avg. IC50), 0.2 nM; on PI3K-gamma, 2.35 nM; at PI3K-beta it was 0.7 nM.

As for `O=C1/C(=C/c2c[nH]c3ccc(Br)cc23)Oc2cc(O)cc(O)c21` [Example 50, (2Z)-2-[(5-bromo-1H-indol-3-yl)methylene]-4,6-dihydroxy-1-benzofuran-3(2H)-one], the half-maximal inhibitory concentration (IC50) at PI3K-delta is 387 nM; on human TOR, 3700 nM; against PI3K-alpha (PI3Kα Avg. IC50), 422 nM; against PI3K-gamma it was 1620 nM; on PI3K-beta it was 358 nM.

On to `COc1ccc2c(c1)c(/C=C1\Oc3cc(O)cc(O)c3C1=O)c(C)n2CCN1CCN(C)CC1` [Example 309, (2Z)-4,6-Dihydroxy-2-({5-methoxy-2-methyl-1-[2-(4-methylpiperazin-1-yl)ethyl]-1H-indol-3-yl}methylene)-1-benzofuran-3(2H)-one], for which the IC50 was below 27 nM on human TOR, 2 nM on PI3K-alpha (read-out: PI3Kα Avg. IC50), 268 nM against PI3K-gamma and 6.5 nM at PI3K-beta.

For `COc1ccc2c(c1)c(/C=C1\Oc3ccc(NC(=O)Nc4ccc(C(=O)N5CCN(C)CC5)cc4)cc3C1=O)c(C)n2CCN1CCN(C)CC1` [Compound 618, 1-[(2Z)-2-({5-methoxy-2-methyl-1-[2-(4-methylpiperazin-1-yl)ethyl]-1H-indol-3-yl}methylene)-3-oxo-2,3-dihydro-1-benzofuran-5-yl]-3-{4-[(4-methylpiperazin-1-yl)carbonyl]phenyl}urea], the IC50 at PI3K-delta turned out to be 5 nM; at human TOR, 100 nM; at PI3K-alpha (read-out: PI3Kα Avg. IC50) it was 0.5 nM.

In the case of `CNC(=O)Nc1ccc2c(c1)C(=O)/C(=C/c1c(-c3c(C)nn(C)c3C)[nH]c3ccc(OC)cc13)O2` [Compound 627, 1-[(2Z)-2-{[5-methoxy-2-(1,3,5-trimethyl-1H-pyrazol-4-yl)-1H-indol-3-yl]methylidene}-3-oxo-2,3-dihydro-1-benzofuran-5-yl]-3-methylurea], the IC50 was determined as 4.5 nM on PI3K-delta, 0.6 nM at PI3K-alpha (read-out: PI3Kα Avg. IC50), 4.65 nM against PI3K-gamma and 28.5 nM on PI3K-beta.

As to `COc1ccc2c(c1)c(/C=C1\Oc3ccc(NC(=O)Nc4ccc(C(=O)N5CCN(C)CC5)cc4)cc3C1=O)c(C)n2CCO` [Compound 619, 1-[(2Z)-2-{[1-(2-hydroxyethyl)-5-methoxy-2-methyl-1H-indol-3-yl]methylene}-3-oxo-2,3-dihydro-1-benzofuran-5-yl]-3-{4-[(4-methylpiperazin-1-yl)carbonyl]phenyl}urea], the IC50 at PI3K-delta is 2.5 nM; at human TOR, 38 nM; at PI3K-alpha (read-out: PI3Kα Avg. IC50), 0.2 nM.

For `COc1ccc2[nH]c(-c3ccccc3)c(C=C3Oc4cc(O)cc(O)c4C3=O)c2c1` [Example 70, 4,6-dihydroxy-2-[(5-methoxy-2-phenyl-1H-indol-3-yl)methylene]-1-benzofuran-3(2H)-one], the IC50 is 5.3 nM on PI3K-delta, below 30 nM on human TOR, 13.4 nM against PI3K-gamma and 26 nM at PI3K-beta.

With `CCn1c(C)c(/C=C2\Oc3ccc(NC(=O)Nc4ccc(C(=O)N5CCN(C)CC5)cc4)cc3C2=O)c2cc(OC)ccc21` [Compound 620, 1-{(2Z)-2-[(1-ethyl-5-methoxy-2-methyl-1H-indol-3-yl)methylene]-3-oxo-2,3-dihydro-1-benzofuran-5-yl}-3-{4-[(4-methylpiperazin-1-yl)carbonyl]phenyl}urea], the values for the IC50 at PI3K-delta, on human TOR and at PI3K-alpha (read-out: PI3Kα Avg. IC50) were 2 nM, 240 nM and 0.3 nM, respectively.

As for `COc1ccc2c(c1)c(C=C1Oc3cc(O)cc(O)c3C1=O)c(C)n2CCCCCl` [Example 87, 2-{[1-(4-chlorobutyl)-5-methoxy-2-methyl-1H-indol-3-yl]methylene}-4,6-dihydroxy-1-benzofuran-3(2H)-one], the IC50 on PI3K-delta is 6 nM; on human TOR, below 24 nM; against PI3K-gamma it was 142 nM; at PI3K-beta it was 72 nM.

Turning to `COc1ccc2c(c1)c(C=C1Oc3cc(O)cc(O)c3C1=O)c(C)n2CCN1CCN(C)CC1` [Example 108, 4,6-dihydroxy-2-({5-methoxy-2-methyl-1-[2-(4-methylpiperazin-1-yl)ethyl]-1H-indol-3-yl}methylene)-1-benzofuran-3(2H)-one], the IC50 on human TOR was below 34 nM; on PI3K-alpha (PI3Kα Avg. IC50), 5 nM; against PI3K-gamma, 474 nM; at PI3K-beta, 7.5 nM.

Regarding `COc1ccc2c(c1)c(/C=C1\Oc3ccc(NC(=O)Nc4ccc(C(=O)N(C)CCN(C)C)cc4)cc3C1=O)c(C)n2CCN1CCN(C)CC1` [Compound 649, N-[2-(dimethylamino)ethyl]-4-({[(2Z)-2-({5-methoxy-2-methyl-1-[2-(4-methylpiperazin-1-yl)ethyl]-1H-indol-3-yl}methylene)-3-oxo-2,3-dihydro-1-benzofuran-5-yl]carbamoyl}amino)-N-methylbenzamide], the concentration for half-maximal inhibition (IC50) amounted to 31 nM on human TOR, 0.4 nM on PI3K-alpha (read-out: PI3Kα Avg. IC50) and 19 nM against PI3K-gamma.

Take `Cn1cc(/C=C2\Oc3cc(O)cc(O)c3C2=O)c2c(-c3ccc(N)cc3)cccc21` [Example 370, (2Z)-2-{[4-(4-Aminophenyl)-1-methyl-1H-indol-3-yl]methylene}-4,6-dihydroxy-1-benzofuran-3(2H)-one]: the values for the IC50 on human TOR, on PI3K-alpha (read-out: PI3Kα Avg. IC50) and against PI3K-gamma were 14 nM, 1070 nM and 3000 nM, respectively.

Turning to `N#CCCCn1cc(C=C2Oc3cc(O)cc(O)c3C2=O)c2c(Br)cccc21` [Example 230, 4-{4-bromo-3-[(4,6-dihydroxy-3-oxo-1-benzofuran-2(3H)-ylidene)methyl]-1H-indol-1-yl}butanenitrile], the results for the IC50 at human TOR, at PI3K-alpha (read-out: PI3Kα Avg. IC50) and against PI3K-gamma were 3400 nM, 2020 nM and above 10000 nM, respectively.

With `O=C1C(=Cc2c[nH]c3ccc(I)cc23)Oc2cc(O)cc(O)c21` [Example 177, 4,6-dihydroxy-2-[(5-iodo-1H-indol-3-yl)methylene]-1-benzofuran-3(2H)-one], the results for the IC50 at human TOR, on PI3K-alpha (read-out: PI3Kα Avg. IC50) and at PI3K-gamma were 9100 nM, 187 nM and 3360 nM, respectively.

Values taken from US20090311217A1, “3-SUBSTITUTED-1H-INDOLE COMPOUNDS, THEIR USE AS MTOR KINASE AND PI3 KINASE INHIBITORS, AND THEIR SYNTHESES” (priority 2008, published 2009).
